Legend:
Type in all cases: cell-based
[1] = system: GFP controlled by a tTA/rtTA responsive promoter; assay: rtTA dependent GFP fluorescence in S. cerevisiae; settings: for basal activity (GFP fluorescence in the absence of inducer): excitation 490 nm, emission 512 nm
Description: Thus, a plasmid, designated pCM190GFP+, was constructed which contains the following elements: • the coding sequence for GFP controlled by a tTA/rtTA responsive promoter; • a tTA/rtTA encoding sequence that is constitutively expressed; • the URA3 marker that allows selection in appropriate yeast strains; • the replication function of the 2μ episome of S. cerevisiae. Unique endonuclease cleavage sites allow for the removal of the TetR, the activation domain, or the entire tTA encoding sequences, typically replaced by pools of mutagenized alleles obtained as described previously (Leung et al., 1989).
The gene encoding GFP was cloned into the multiple cloning site of pCM190 (Gari et al., 1997) to serve as an indicator of rtTA activity, yielding plasmid pCM190GFP+. The TetR portion of tTA was amplified for mutagenesis with two oligonucleotide primers, 5′-[…] (SEQ ID NO:46), and 5′-[…] (SEQ ID NO:47), from the vector pCM190 as described (Leung et al., 1989). The PCR-fragments and pCM190-GFP+ were restricted with XbalI and BsiWI and purified. The PCR-fragments and the vector were then ligated and transformed into E. coli DH5α. Several thousand E. coli clones were co-cultured, and their plasmid pools were prepared and transformed into S. cerevisiae using the LiAc-method (Ito et al., 1983). […]
Accordingly, the resulting uracil-prototroph yeast clones were replica plated on minimal medium without uracil containing either Tc and/or Dox and scored after growth for two to three days at 30° C. using long wavelength UV-light to excite GFP fluorescence. […] The GFP fluorescence is shown on a logarithmic scale on the left axis. Fluorescence intensities are shown for each transactivator in the absence of inducer, in the presence of 10 μg/ml of Tc, and/or in the presence of 10 μg/ml of Dox. […]
S. cerevisiae strains containing rtTA-34R, rtTA-44R and a GFP^31 strain, as well as strains containing the original tTA and rtTA were grown overnight in minimal medium. […] The light emission of these cells was scored in a fluorimeter using an excitation wavelength of 490 nm and recording emission at 512 nm. […]

[2] = system: luciferase gene controlled by Ptet; assay: rtTA-dependent luciferase expression in transiently cotransfected HeLa cells (pUHC13-3); settings: for induction of luciferase activity compared to rtTA: 5 μg/ml Tc or Dox; for reverse phenotype: transient expression, luciferase
Description: rtTA-34R and rtTA-44R were then recloned into pUHD15-1 (Gossen & Bujard, 1992), replacing the respective portions of tTA. HeLa cells were transiently cotransfected with plasmids pUHC13-3, encoding the luciferase gene controlled by Ptet (Gossen & Bujard, 1992), and the pUHD15-1 plasmids containing the genes of the respective transactivators. Luciferase activities were measured in absence (light column) and presence of 5 μg/ml of the effectors tetracycline (Tc, light grey) or doxycycline (Dox, dark grey). On the X axis, (−) corresponds to control HeLa cells into which no DNA was transferred. […] The increased regulation factor observed results from both a lower basal and a higher induced activity.
To obtain additional information about the role of the mutated residues, we separated the mutations at positions 19 and 56 from those at 139, 148 and 179. The resulting proteins are called rtTA-1956R and rtTA-148179R. The activation potential of rtTA-1956R and rtTA-148179R was assessed in transient expression experiments. Plasmids encoding the respective rtTA variants were cotransfected with the pUHC13-3 luciferase indicator plasmid into HeLa cells and the luciferase activity was determined.

[3] = system: luciferase reporter construct pUHC13-3; assay: Doxycycline-dependent regulation of luciferase in HeLa cell lines stably producing the transactivator, reporter pUHC13-3 transiently transfected
Description: In order to generate cell lines that maintain the plasmid episomally and thus produce the transactivator over extended periods of time, the transcription unit containing the rtTA-34R coding sequence controlled by the hCMV promoter was inserted into […] (Invitrogen, Carlsbad, USA) from which the RSV promoter had been excised. […] HeLa cells were transfected with the plasmid pCEP4-rtTA-34R, and clones isolated via G418 selection. Clones stably producing the transactivator were selected and tested for their ability to activate transcription from the transiently transfected luciferase reporter construct pUHC13-3 in the presence and absence of Dox.
Upon addition of 5 μg/ml of Dox, luciferase activity is induced up to 600 fold. In comparison to the HeLa cell line HR5 harboring chromosomal copies of the rtTA gene (Gossen et al., 1995), the background level is reduced. […] This leads to a several hundred fold induction of gene expression in the case of the rtTA-34R clones whereas in HR5 cells rtTA achieves only a 20 to 30 fold induction under these conditions.

[4] = system: Ptet-luciferase expression unit; assay: Dox dependent luciferase activity in stably transfected HeLa cells (X1/6-34R-FFFF, HR5-CL11); settings: X1/6-34R-FFFF or HR5-CL11
Description: The coding sequence of rTetR-34R was fused with a DNA encoding four minimal activation domains (FFFF)(Baron et al., 1997) by insertion into a proper pUHD vector to generate plasmid […]. HeLa cell line X1/6 was transfected with plasmid pUHrT5 1-1 carrying the rtTA-34R-FFFF gene under the control of PhCMv. The resulting HeLa cell line X1/6-34R-FFFF contains, in addition, the Ptet-luciferase expression unit in a “silent but activatable” locus.
Cell lines derived from various clones that contain pUHrT51-1 stably inserted into the genome where it is constitutively expressed were isolated via hygromycin-B selection and analyzed for Dox dependent luciferase activity. […] This is most likely due to the residual affinity between rtTA and tetO.

[5] = cell line HeLa 0.34R-16, episomal pCEP4-rtTA-34R
[6] = cell line HeLa 0.34R-33, episomal pCEP4-rtTA-34R
[7] = cell line HeLa 0.34R-36, episomal pCEP4-rtTA-34R
[8] = cell line HeLa HR5 (Tet on), chromosomal copies of the rtTA gene

Substance: rtTA-34R: rtTA sequence variant E19G, A56P, H139H (silent), D148E, H179R; aa = SEQ ID NO:2
- basal activity (GFP fluorescence in the absence of inducer) [1]: clearly lower as compared to rtTA
- induction of luciferase activity compared to rtTA [2]: even higher induction of luciferase activity as compared to rtTA
- reverse phenotype [2]: improved reverse phenotype
- induced level of luciferase in comparison to HR5 ([3]; 5 μg/ml of Dox, rtTA-34R HeLa clones): significantly elevated
- induction of luciferase activity ([3]; 5 μg/ml of Dox, rtTA-34R HeLa clones, rtTA in HR5 cells): up to 600 fold
- factor of induction ([3]; cell line HeLa 0.34R-16): 600
- Luciferase activity (RLU/μg protein) with Dox [3, 5]: 540 ± 50 RLU/μg protein
- Luciferase activity (RLU/μg protein) without Dox [3, 5]: 323600 ± 69470 RLU/μg protein
- factor of induction ([3]; cell line HeLa 0.34R-33): 200
- Luciferase activity (RLU/μg protein) with Dox [3, 6]: 360 ± 140 RLU/μg protein
- Luciferase activity (RLU/μg protein) without Dox [3, 6]: 74620 ± 3230 RLU/μg protein
- factor of induction ([3]; cell line HeLa 0.34R-36): 200
- Luciferase activity (RLU/μg protein) with Dox [3, 7]: 430 ± 50 RLU/μg protein
- Luciferase activity (RLU/μg protein) without Dox [3, 7]: 87000 ± 7820 RLU/μg protein
- background level of luciferase in comparison to HR5 ([3]; without Dox, rtTA-34R HeLa clones): reduced

Substance: rtTA-44R: rtTA sequence variant T26A, D95G; aa = SEQ ID NO:13
- basal activity (GFP fluorescence in the absence of inducer) [1]: clearly lower as compared to rtTA
- induction of luciferase activity compared to rtTA [2]: not improved over rtTA
- reverse phenotype [2]: shows a reverse phenotype

Substance: rtTA-1956R: rtTA sequence variant E19G, A56P; aa = SEQ ID NO:7
- reverse phenotype [2]: sufficient for the reverse phenotype

Substance: rtTA: original reverse tetracycline controlled transactivator (Gossen et al., 1995), parent, SEQ ID NO: 22/23 [reference compound]
- induction factor of expression ([1]; GFP fluorescence, Tc or Dox 10 μg/ml): 40 fold
- factor of induction ([3]; cell line HeLa HR5 (Tet on)): 27
- Luciferase activity (RLU/μg protein) with Dox [3, 8]: 920 ± 170 RLU/μg protein
- Luciferase activity (RLU/μg protein) without Dox [3, 8]: 26400 ± 4030 RLU/μg protein
- induction of luciferase activity by Dox [4]: about 700 fold
- luciferase activity in the absence of Dox [4]: significant background luciferase activity
